pIC50: −log10 of the molar value.
What was measured:
[1] = biological target: T1, Protein smoothened (Homo sapiens, UniProt Q99835); test: Inhibition of Bodipy-labelled cyclopamine binding to Smo expressed in COS-1 cells in presence of 20% NHS after 4 to 6 hrs by FACS flow cytometric analysis; assay type: cell-based
[2] = biological target: T1, Protein smoothened; test: Displacement of Bodipy-labelled cyclopamine from Smo expressed in COS-1 cells in presence of 2% FBS after 4 to 6 hrs by FACS flow cytometric analysis; assay type: cell-based
[3] = system: Shh Light II; test: Inhibition of Shh signaling in mouse Shh-light2 cells by Gli-dependent firefly luciferase reporter gene assay; assay type: functional, cell-based
[4] = Fraction unbound in human plasma; assay type: ADME, cell-free
[5] = Intrinsic clearance in rat liver microsomes assessed per mg of protein; assay type: ADME, Microsome
[6] = Lipophilicity, log D of the compound; assay type: physicochemical; conditions: octanol/water
[7] = Terminal half life in rat; assay type: ADME, organism-based; conditions: in vivo, read-out: beta t1/2 (converted)
[8] = Clearance in rat; assay type: ADME, organism-based; conditions: in vivo
[9] = Oral bioavailability in rat; assay type: ADME, organism-based; conditions: in vivo
[10] = Fraction unbound in rat plasma; assay type: ADME, cell-free

T1 sequence (Q99835 whole entry): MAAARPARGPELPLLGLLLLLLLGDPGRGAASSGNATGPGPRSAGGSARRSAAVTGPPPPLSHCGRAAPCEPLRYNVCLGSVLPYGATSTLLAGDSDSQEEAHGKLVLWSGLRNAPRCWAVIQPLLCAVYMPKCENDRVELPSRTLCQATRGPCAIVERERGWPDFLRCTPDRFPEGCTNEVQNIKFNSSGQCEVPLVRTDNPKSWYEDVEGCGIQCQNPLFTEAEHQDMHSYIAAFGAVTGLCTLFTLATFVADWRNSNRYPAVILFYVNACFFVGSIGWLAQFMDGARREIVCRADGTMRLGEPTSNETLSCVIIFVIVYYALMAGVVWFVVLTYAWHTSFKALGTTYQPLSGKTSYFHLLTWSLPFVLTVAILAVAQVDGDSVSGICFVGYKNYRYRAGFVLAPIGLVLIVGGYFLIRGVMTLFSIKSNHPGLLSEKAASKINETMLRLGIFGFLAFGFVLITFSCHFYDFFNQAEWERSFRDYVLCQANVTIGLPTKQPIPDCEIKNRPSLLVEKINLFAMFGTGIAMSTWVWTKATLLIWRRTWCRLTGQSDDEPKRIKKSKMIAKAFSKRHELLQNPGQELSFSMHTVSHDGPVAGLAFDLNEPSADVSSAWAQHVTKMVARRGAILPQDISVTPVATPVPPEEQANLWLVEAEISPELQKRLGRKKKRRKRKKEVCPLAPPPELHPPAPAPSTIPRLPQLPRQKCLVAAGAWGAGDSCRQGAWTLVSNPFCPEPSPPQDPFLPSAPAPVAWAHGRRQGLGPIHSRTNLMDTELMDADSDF

| pIC50 [2] | pIC50 [3] | SMILES | other results |
| --- | --- | --- | --- |
| 5.92 | – | CS(=O)(=O)c1ccc(Cl)c(NC(=O)N2CCC(c3nc(-c4ccc5ccccc5n4)no3)CC2)c1 | pIC50 [1]: < 5.60 |
| 6.46 | 6.32 | CC(C)c1ccccc1NC(=O)N1CCC(c2nc(-c3ccc4ccccc4n3)no2)CC1 | – |
| 5.66 | – | O=C(Nc1ccccc1Cl)N1CCC(c2nc(-c3ccc4cnccc4n3)no2)CC1 | – |
| 5.85 | 5.51 | COc1ccccc1N(C)C(=O)N1CCC(c2nc(-c3ccc4ccccc4n3)no2)CC1 | – |
| < 5.60 | – | O=C(Nc1ccccc1Cl)N1CCC(c2nc(-c3nccc4ccccc34)no2)CC1 | – |
| 6.32 | – | O=C(NC1CCC(F)(F)CC1)N1CCC(c2nc(-c3ccc4ccccc4n3)no2)CC1 | pIC50 [1]: 5.82 |
| 5.64 | 6.30 | CC(=O)N1CCC(NC(=O)N2CCC(c3nc(-c4ccc5ccccc5n4)no3)CC2)CC1 | pIC50 [1]: 5.89 |
| 6.33 | – | O=C(Nc1ccc(Cl)cc1)N1CCC(c2nc(-c3ccc4ccccc4n3)no2)CC1 | – |
| 5.74 | 6.07 | O=C(NC1CC[S+]([O-])CC1)N1CCC(c2nc(-c3ccc4ccccc4n3)no2)CC1 (stereo unspecified) | pIC50 [1]: 5.32 |
| 6.55 | 6.24 | O=C(OC1CCCCC1)N1CCC(c2nc(-c3ccc4ccccc4n3)no2)CC1 | – |
| < 5.60 | – | COc1ccc2ccc(-c3noc(C4CCN(C(=O)Nc5ccccc5Cl)CC4)n3)nc2c1 | pIC50 [1]: < 5.60 |
| 6.32 | – | O=C(Nc1ccccc1)N1CCC(c2nc(-c3ccc4ccccc4n3)no2)CC1 | – |
| 5.96 | 5.70 | O=C(Nc1cnccc1Cl)N1CCC(c2nc(-c3ccc4ccccc4n3)no2)CC1 | – |
| < 5.60 | – | Clc1ccccc1CN1CCC(c2nc(-c3ccc4ccccc4n3)no2)CC1 | – |
| < 5.60 | – | COc1ccccc1NC(=O)N1CCC(c2nc(-c3cnccn3)no2)CC1 | – |
| 6.00 | 6.08 | O=C(CC1CCCCCC1)N1CCC(c2nc(-c3ccc4ccccc4n3)no2)CC1 | – |
| 5.66 | – | COc1ccccc1NC(=O)N1CCC(c2nc(-c3ccc4ccccc4c3)no2)CC1 | – |
| 4.82 | 5.62 | COc1ccccc1NC(=O)N1CCC(c2noc(-c3ccc4ccccc4n3)n2)CC1 | – |
| 6.17 | 5.64 | O=C(N1CCC(c2nc(-c3ccc4ccccc4n3)no2)CC1)N1CCCc2ccccc21 | – |
| 5.72 | – | N#Cc1ccc(NC(=O)N2CCC(c3nc(-c4ccc5ccccc5n4)no3)CC2)c(Cl)c1 | – |
| 6.00 | 5.89 | O=C(Nc1ccccc1Cl)N1CCC(F)(c2nc(-c3ccc4ccccc4n3)no2)CC1 | – |
| 5.68 | 5.89 | O=C(Nc1ccccc1Cl)N1CCC(O)(c2nc(-c3ccc4ccccc4n3)no2)CC1 | – |
| 6.47 | 6.15 | O=C(Nc1ccccc1C(F)(F)F)N1CCC(c2nc(-c3ccc4ccccc4n3)no2)CC1 | – |
| 5.96 | – | O=C(Nc1ccccc1Cl)N1CCC(c2nc(-c3cnc4ccccc4n3)no2)CC1 | – |
| 5.89 | 5.85 | O=C(Nc1cccc2cccnc12)N1CCC(c2nc(-c3ccc4ccccc4n3)no2)CC1 | – |
| < 5.60 | 5.55 | O=C(Nc1ncccc1Cl)N1CCC(c2nc(-c3ccc4ccccc4n3)no2)CC1 | – |

| pIC50 [2] | pIC50 [3] | SMILES | other results |
| --- | --- | --- | --- |
| 6.38 | 6.20 | O=C(NC1CCCC1)N1CCC(c2nc(-c3ccc4ccccc4n3)no2)CC1 | – |
| 5.74 | – | COc1ccc2nc(-c3noc(C4CCN(C(=O)Nc5ccccc5Cl)CC4)n3)ccc2c1 | – |
| < 5.60 | – | COc1ccccc1NC(=O)N1CCC(c2nc(-c3ncccn3)no2)CC1 | – |
| < 5.60 | – | COc1cc(-c2noc(C3CCN(C(=O)Nc4ccccc4Cl)CC3)n2)nc2ccccc12 | pIC50 [1]: < 5.60 |
| 5.54 | 5.60 | O=C(NC1CCNCC1)N1CCC(c2nc(-c3ccc4ccccc4n3)no2)CC1 | pIC50 [1]: 5.43 |
| 5.47 | 5.49 | CN1CCC(NC(=O)N2CCC(c3nc(-c4ccc5ccccc5n4)no3)CC2)CC1 | – |
| < 5.60 | – | COc1ccccc1NC(=O)N1CCC(c2nc(-c3nccc4ccccc34)no2)CC1 | – |
| 5.82 | 5.52 | Cc1noc(C)c1NC(=O)N1CCC(c2nc(-c3ccc4ccccc4n3)no2)CC1 | – |
| 5.72 | – | COc1ccccc1NC(=O)N1CCC(c2nc(-c3cnc4ccccc4c3)no2)CC1 | – |
| 6.55 | 7.24 | O=C(NC1CCCCC1)N1CCC(c2nc(-c3ccc4ccccc4n3)no2)CC1 | pIC50 [1]: 5.80; fraction unbound [4]: 0.005; microsomal CLint [5]: > 300 µL/min/mg |
| < 5.60 | – | O=C(Nc1ccccc1Cl)N1CCC(c2nc(-c3ccccn3)no2)CC1 | – |
| 5.82 | – | CS(=O)(=O)c1ccc(NC(=O)N2CCC(c3nc(-c4ccc5ccccc5n4)no3)CC2)c(Cl)c1 | pIC50 [1]: 5.39; logD [6]: 2.8 |
| 5.82 | 5.80 | O=C(Nc1cccnc1Cl)N1CCC(c2nc(-c3ccc4ccccc4n3)no2)CC1 | – |
| < 5.60 | – | COc1ccccc1NC(=O)N1CCC(c2nc(-c3cccnc3)no2)CC1 | – |
| < 5.60 | – | O=C(Nc1ccccc1Cl)N1CCC(c2nc(-c3cnc4ccccc4c3)no2)CC1 | – |
| 6.10 | 6.17 | CC1CN(C(=O)Nc2ccccc2Cl)CCC1c1nc(-c2ccc3ccccc3n2)no1 (mixture of isomers) | – |
| 6.07 | 6.44 | O=C(NC1CCS(=O)(=O)CC1)N1CCC(c2nc(-c3ccc4ccccc4n3)no2)CC1 | pIC50 [1]: 5.80; half-life [7]: 54 min; clearance [8]: 40 mL/min/kg; microsomal CLint [5]: 8 µL/min/mg |
| < 5.60 | – | O=C(Nc1ccccc1Cl)N1CCC(c2nc(-c3cnccn3)no2)CC1 | – |
| < 5.60 | – | O=C(Nc1ccccc1Cl)N1CCC(c2nc(-c3ncccn3)no2)CC1 | – |
| < 5.60 | – | COc1cccc2nc(-c3noc(C4CCN(C(=O)Nc5ccccc5Cl)CC4)n3)ccc12 | pIC50 [1]: < 5.60 |
| < 5.60 | – | O=C(Nc1ccccc1Cl)N1CCC(c2nc(-c3ncc4ccccc4n3)no2)CC1 | – |
| 6.96 | 6.60 | COc1ccccc1OC(=O)N1CCC(c2nc(-c3ccc4ccccc4n3)no2)CC1 | – |
| 8.52 | 8.30 | Cn1c(-c2noc(N3CCN(C(=O)NC4CCCCC4)CC3)n2)nc2ccccc21 | pIC50 [1]: 7.48; clearance [8]: 26 mL/min/kg; microsomal CLint [5]: 119 µL/min/mg; bioavailability [9]: 10%; logD [6]: 2.57 |
| < 5.60 | – | COc1ccccc1NC(=O)N1CCC(c2nc(-c3ccncc3)no2)CC1 | – |
| 5.77 | 6.32 | O=C(NC1CCOCC1)N1CCC(c2nc(-c3ccc4ccccc4n3)no2)CC1 | pIC50 [1]: 5.07 |
| < 5.60 | < 5.60 | O=C(OCc1ccccc1)N1CCC(c2nc(-c3ccc4ccccc4n3)no2)CC1 | – |

| pIC50 [2] | pIC50 [3] | SMILES | other results |
| --- | --- | --- | --- |
| < 5.60 | – | COc1ccccc1NC(=O)N1CCC(c2nc(-c3ccccc3)no2)CC1 | – |
| < 5.60 | – | COc1cccc2ccc(-c3noc(C4CCN(C(=O)Nc5ccccc5Cl)CC4)n3)nc12 | – |
| 6.12 | – | COc1ccccc1NC(=O)N1CCC(c2nc(-c3cc4ccccc4cn3)no2)CC1 | – |
| 6.12 | 6.39 | O=C(NCC1CCC1)N1CCC(c2nc(-c3ccc4ccccc4n3)no2)CC1 | – |
| 6.31 | 6.72 | N#Cc1ccccc1NC(=O)N1CCC(c2nc(-c3ccc4ccccc4n3)no2)CC1 | – |
| < 5.60 | – | O=C(Nc1ccccc1Cl)N1CCC(c2nc(-c3ccc4ccncc4n3)no2)CC1 | – |
| < 5.60 | – | COc1ccccc1NC(=O)N1CCC(c2nc(-c3ccccn3)no2)CC1 | – |
| < 5.60 | – | COc1ccccc1NC(=O)N1CCC(c2nc(-c3ccccc3C)no2)CC1 | – |
| < 5.60 | – | CCNC(=O)N1CCC(c2nc(-c3ccc4ccccc4n3)no2)CC1 | – |
| 5.22 | 5.60 | CC1(c2nc(-c3ccc4ccccc4n3)no2)CCN(C(=O)Nc2ccccc2Cl)CC1 | – |
| < 5.60 | – | O=C(Nc1ccccc1Cl)N1CCC(c2nc(-c3ccc4ncccc4n3)no2)CC1 | – |
| 6.21 | 5.62 | C[C@@H]1C[C@H](c2nc(-c3ccc4ccccc4n3)no2)CCN1C(=O)Nc1ccccc1Cl | – |
| 8.15 | – | Cn1c(-c2noc(N3CCN(C(=O)NC4CCC(F)(F)CC4)CC3)n2)nc2ccccc21 | pIC50 [1]: 7.60 |
| < 5.60 | – | O=C(Nc1ccccc1Cl)N1CCC(c2nc(-c3ccccc3)no2)CC1 | – |
| 6.46 | 7.05 | Cn1c(-c2noc(C3CCN(C(=O)NC4CCCCC4)CC3)n2)nc2ccccc21 | pIC50 [1]: 5.96; half-life [7]: 78 min; clearance [8]: 26 mL/min/kg; microsomal CLint [5]: 192 µL/min/mg; fraction unbound [10]: 0.02; bioavailability [9]: 59% |
| < 5.60 | – | O=C(Nc1ccccc1Cl)N1CCC(c2nc(-c3cccnc3)no2)CC1 | – |
| < 5.60 | – | O=C(c1ccccc1Cl)N1CCC(c2nc(-c3ccc4ccccc4n3)no2)CC1 | – |
| 6.74 | 6.39 | COc1ccccc1NC(=O)N1CCC(c2nc(-c3ccc4ccccc4n3)no2)CC1 | – |
| 6.29 | 6.36 | Cc1ccccc1NC(=O)N1CCC(c2nc(-c3ccc4ccccc4n3)no2)CC1 | – |
| < 5.60 | – | c1ccc2nc(-c3noc(C4CCN(CC5CCCCC5)CC4)n3)ccc2c1 | – |
| 6.16 | 6.46 | Cn1c(-c2noc(C3CCN(C(=O)NC4CCS(=O)(=O)CC4)CC3)n2)nc2ccccc21 | pIC50 [1]: 6.12 |
| 6.66 | 6.39 | COc1cccc(NC(=O)N2CCC(c3nc(-c4ccc5ccccc5n4)no3)CC2)c1 | – |
| 6.49 | – | N#Cc1ccc(Cl)c(NC(=O)N2CCC(c3nc(-c4ccc5ccccc5n4)no3)CC2)c1 | pIC50 [1]: < 5.60 |
| 6.19 | 6.05 | C[C@H]1C[C@H](c2nc(-c3ccc4ccccc4n3)no2)CCN1C(=O)Nc1ccccc1Cl | – |
| < 5.60 | – | COc1cc2ccccc2nc1-c1noc(C2CCN(C(=O)Nc3ccccc3Cl)CC2)n1 | pIC50 [1]: < 5.60 |

— ChEMBL document CHEMBL1821555, “Identification of a series of 4-[3-(quinolin-2-yl)-1,2,4-oxadiazol-5-yl]piperazinyl ureas as potent smoothened antagonist hedgehog pathway inhibitors” (Bioorg Med Chem Lett, 2011)
